In brackets after ≈: the same amount, converted by molar mass. Marks after values point to notes of the source that are not given here. Square brackets hold non-standard residues; d marks the D form. Peptide text beside a SMILES is read from it. Ac6c = NC1(C(=O)O)CCCCC1
Columns and labels:
E. coli BW25113 = test: MIC, liquid broth micro dilution, wild type; type: cell-based, Escherichia coli; details: for Minimal Inhibitory Concentration, 25% MHB2, wt / Minimal Inhibitory Concentration, 33% TSB, wt: BW25113, 20 h
Procedure: MIC values were determined using a liquid broth micro dilution assay in sterile 96-well plates (polystyrene F-bottom, Greiner Bio-One GmbH) and a total volume of 100 μL per well. Aqueous peptide solutions (10 g/L) were serially twofold diluted in 25% Mueller-Hinton broth 2 (25% MBH2) or 33% tryptic soy broth (33% TSB) starting at a peptide concentration of 128 mg/L (50 μL/well). Overnight cultures of bacteria grown in 25% MHB2 (or 33% TSB) were diluted 30-fold in 25% MHB2 (or 33% TSB). After an incubation period of 4 h (37 °C, 200 rpm), cells were diluted to 1.5 × 10^7 cfu/mL, based on a McFarland test, and 50 μL were added to each well (final concentration of 7.5 × 10^6 […]). The plates were incubated (37 °C, 20 h) and the optical density was recorded at 595 nm using a microplate reader ([…]^TM, Beckmann Coulter). The MIC was defined as the lowest peptide concentration preventing visible bacterial growth.

E. coli 70S ribosome [1] = test: Competitive FP binding screening assay with Cf-ARV-1502 (relative FP); parameters: species or system E. coli BW25113; details: for Ribosome Binding (%): competitive ribosome binding against Cf-ARV-1502 (relative FP; values match 1.2 µmol/L peptide), low value = strong competition
Procedure: E. coli 70S ribosomes were prepared using a previously described protocol that was slightly modified. Briefly, E. coli BW25113 was cultivated in Luria-Bertani (LB) medium and cells were harvested after reaching an optical density of ~4 at 600 nm by centrifugation (5000× g, 15 min, 4 °C, Rotor JLA 8.100, Avanti J-20 XP, Beckmann Coulter, Krefeld, Germany). The cell pellets were frozen and stored at −80 °C. Cells were resuspended in ribosome buffer (2 mL/g cells; 20 mmol/L HEPES-KOH, 6 mmol/L MgCl2, 30 mmol/L NH4Cl, 4 mmol/L 2-mercaptoethanol, pH 7.6). Lysozyme (0.25 g/L cell suspension) was added, and the mixture was incubated on ice for 30 min. Cells were disrupted using the bead mill homogenizer FastPrep-24™ 5G (40 s, 4 m/s, 6 cycles, MP Biomedicals Germany GmbH, Eschwege, Germany) and zirconia/silica beads (0.1 mm diameter). The lysate was centrifuged (1500× g, 5 min, 4 °C, Rotor S4180, Allegra 21R, Beckmann Coulter) and the supernatant was incubated with DNase (5 U/mL) on ice for 60 min. The cell debris was removed by two centrifugation steps (16,000× g, 30 min, 4 °C followed by 32,000× g, 60 min, 4 °C, Rotor JA 30.50 Ti, Avanti J-30I, Beckmann Coulter). The ribosome was pelleted by ultracentrifugation (165,000× g, 17 h, 4 °C, Rotor 70 Ti, Optima LE-80K, Beckmann Coulter), resuspended in ribosome buffer (0.1 mL/g pellet), and stored at −80 °C. The ribosome concentration was determined by recording the absorbance of RNA at 260 nm (NanoPhotometer NP80, Implen GmbH, München, Germany) assuming that 1 AU corresponds to a ribosome concentration of 28 nmol/L. The molecular weight of the E. coli 70S ribosome was assumed to be 2.3 MDa.
E. coli 70S ribosomes and Cf-ARV-1502 were incubated with four different concentrations of unlabeled peptides chosen based on the IC50 curves of reference peptide ARV-1502. Each peptide was diluted in ribosome buffer to obtain a concentration of 4.8 µmol/L and transferred to a 384-well-plate. Peptides were then twofold serially diluted in four steps from 4.8 to 0.6 µmol/L (20 µL). The ribosome extract was diluted in ribosome buffer to reach a concentration of 2 µmol/L and 10 µL were added to each well to obtain a final ribosome concentration of 0.5 µmol/L. Plates were centrifuged (2 min, 500× g, Rotor S2096, Allegra^TM 21R, Beckmann Coulter) and incubated at 28 °C for 90 min. Cf-labeled ARV-1502 was added (10 µL; final concentration of 20 nmol/L) and the plates were again centrifuged and incubated (28 °C, 90 min). After incubation, fluorescence polarization was recorded on a […]^TM microplate reader (λex = 485 nm, λem = 535 nm).
On each plate 12 minimum (30 µL ribosome buffer and 10 µL Cf-ARV-1502) and 12 maximum (20 µL ribosome buffer, 10 µL ribosome solution and 10 µL Cf-ARV-1502) control samples were added. Fluorescence polarization of screening samples was normalized to the fluorescence polarization of these control samples. All screening samples were measured in triplicates and the whole experiment was repeated once on another day.

E. coli 70S ribosome [2] = test: Cell-free GFP expression assay (in vitro translation); type: biochemical; details: for In Vitro Translation (%): GFP expression remaining relative to control, concentration not given (higher concentration 50 µmol/L); for Reduction of GFP expression, 50 µmol/L peptide: cell-free expression, peptide-to-ribosome ratio of 25, GFP fluorescence, 37 °C
Source text: Possible effects of ARV-1502 and its substituted analogs on the in vitro translation of the green fluorescent protein (GFP) were probed using the NEB PureExpress Delta RF123 Kit (New England Biolabs, Ipswich, MA, USA). The sfGFP DNA template was amplified from pY71sfGFP plasmid by PCR introducing an UAA stop codon. Release factor 1 (RF1) was 50fold diluted in Pure System Buffer (PSB) containing magnesium acetate (1 mol/L), monopotassium phosphate (0.5 mol/L, pH 7.3), potassium glutamate (1 mol/L), NH4Cl (1 mol/L), calcium chloride (0.5 mol/L), spermidine (1 mol/L), putrescine (0.1 mol/L), and DTT (0.1 mol/L). Each reaction used 35 ng of sfGFP template. Peptides were added at a final concentration of 5 µmol/L and 50 µmol/L. The reaction was started by adding Kit solutions A (2 µL) and B (1.5 µL), diluted RF1 (0.5 µL), sfGFP template (0.25 µL or water as negative control), PSB (0.25 µL), and peptide (0.5 µL or water), mixed, transferred into a black 384-well plate (flat bottom, Greiner Bio-One GmbH), and incubated (37 °C, 2 h). The fluorescence was recorded every 10 min (λexc = 485 nm, λem = 535 nm) in a microplate reader (Gemini EM, Molecular Devices LLC, San Jose, CA, USA).

Row | Structure (SMILES) | MIC / activity against E. coli (E. coli BW25113; BW25113, 4 h) [µg/mL] | Minimal Inhibitory Concentration, 25% MHB2, wt (E. coli BW25113) [µg/mL] | Minimal Inhibitory Concentration, 33% TSB, wt (E. coli BW25113) | Ribosome Binding (%) (E. coli 70S ribosome [1]) | In Vitro Translation (%) (E. coli 70S ribosome [2]) | Reduction of GFP expression, 50 µmol/L peptide (E. coli 70S ribosome [2]) | MIC (µg/mL), Table 3 (E. coli BW25113; BW25113, 4 h) [µg/mL] | Inhibition of Cf-ARV-1502 binding to the 70S ribosome (in words) (E. coli 70S ribosome [1]; Figure 3: peptide concentration 1.2 µmol/L)
1 | CC(C)C[C@H](NC(=O)[C@H](Cc1ccc(O)cc1)NC(=O)[C@@H]1CCCN1C(=O)[C@H](CCCNC(=N)N)NC(=O)[C@@H]1CCCN1C(=O)[C@H](CCCCN)NC(=O)[C@H](CCCCN)NC(=O)[C@@H]1CCCN1C(=O)[C@H](CCCNC(=N)N)NC(=O)C1(N)CCCCC1)C(=O)N1CCC[C@H]1C(=O)N[C@@H](Cc1ccccc1)C(=O)N1CCC[C@H]1C(=O)N[C@@H](CCCNC(=N)N)C(=O)N1CCC[C@H]1C(=O)N1CCC[C@H]1C(=O)N[C@@H](CCCNC(=N)N)C(=O)N1CCC[C@H]1C(=O)N[C@H](C(=O)N[C@@H](CCCNC(=N)N)C(N)=O)C(C)C [Peptide 46] (H-[Ac6c]RPKKPRPYLPFPRPPRPVR-NH2; N-terminus and C-terminus assumed) | 16 (≈ 6.45 µM) | 16 | 64 * µg/mL | 87.1 ± 3.4 | 96.6 ± 3.1 | did not inhibit GFP expression |  | 
2 | CC(C)C[C@H](NC(=O)[C@H](Cc1ccc(O)cc1)NC(=O)[C@@H]1CCCN1C(=O)[C@H](CCCNC(=N)N)NC(=O)[C@@H]1CCCN1C(=O)[C@H](Cc1ccccc1)NC(=O)[C@H](Cc1ccccc1)NC(=O)[C@@H]1CCCN1C(=O)[C@H](CCCNC(=N)N)NC(=O)C1(N)CCCCC1)C(=O)N[C@@H](CCCCN)C(=O)N[C@@H](CCCNC(=N)N)C(=O)N1CCC[C@H]1C(=O)N[C@@H](CCCNC(=N)N)C(=O)N1CCC[C@H]1C(=O)N1CCC[C@H]1C(=O)N[C@@H](CCCNC(=N)N)C(=O)N1CCC[C@H]1C(=O)N[C@H](C(=O)N[C@@H](CCCNC(=N)N)C(N)=O)C(C)C [Peptide 98] (H-[Ac6c]RPFFPRPYLKRPRPPRPVR-NH2; N-terminus and C-terminus assumed) |  | 8 to 16 | 32 µg/mL | 98.3 ± 1.5 | 56.2 ± 2.1 |  | 8 to 16 | poor competitor of Cf-ARV-1502
3 | CC(C)[C@H](NC(=O)[C@@H]1CCCN1C(=O)[C@H](CCCNC(=N)N)NC(=O)[C@@H]1CCCN1C(=O)[C@@H]1CCCN1C(=O)[C@H](CCCNC(=N)N)NC(=O)[C@@H]1CCCN1C(=O)[C@H](CCCNC(=N)N)NC(=O)[C@@H]1CCCN1C(=O)[C@H](CCCCN)NC(=O)[C@H](CO)NC(=O)[C@@H]1CCCN1C(=O)[C@H](CCCNC(=N)N)NC(=O)[C@@H]1CCCN1C(=O)[C@H](CCCCN)NC(=O)[C@H](CC(=O)O)NC(=O)[C@@H]1CCCN1C(=O)[C@H](CCCNC(=N)N)NC(=O)C1(N)CCCCC1)C(=O)N[C@@H](CCCNC(=N)N)C(N)=O [Peptide 125] (H-[Ac6c]RPDKPRPSKPRPRPPRPVR-NH2; N-terminus and C-terminus assumed) |  | 128 |  | 86.3 ± 2.5 | 104.3 ± 9.3 | slightly improved GFP translation | 128 (≈ 53 µM) | 
